Values quoted from earlier work as cited in PubChem BioAssay AID1259409 (Chemical Carcinogenesis Research Information System (CCRIS), 2018).
Values joined by “and” are separate entries in the source; they are usually repeats but may differ in a detail not shown here. Equal values may be shown once.

Tested on: rodent chemically induced tumor inhibition, incidence and multiplicity
Experiment: CCRIS tumor inhibitor studies

S=C=NCc1ccccc1
tumour outcome (control, treated, inhibition, significance) (Carcinogen: 1,2-DIMETHYLHYDRAZINE, 540-73-8, Dose [Inhibitor]: 1.25 MG/G IN DIET FOR 17 WK (STUDY DURATION: 36 WK), Route [Inhibitor]: ORAL, Species: MOUSE, Strain/Sex: CF1/FEMALE, Target Tissue: Type of Lesion: LARGE INTESTINE: TUMOR, Dose [Carcinogen]: 0.7 MG IN 0.2 ML EDTA SOLUTION ADMINISTERED 8 D AFTER INHIBITOR DIET STARTED AND CONTINUED 1/WK FOR 16 WK, Promoter: NONE USED): 9/9 (100%), 14/14 (100%), 0%, not significant
tumour outcome (control, treated, inhibition, significance) (Carcinogen: 2-AMINO-1-METHYL-6-PHENYLIMIDAZO[4,5-B]PYRIDINE, 105650-23-5, Dose [Inhibitor]: 0, 400 PPM IN HIGH FAT DIET FOR DURATION OF STUDY BEGINNING 1 WK PRIOR TO CARCINOGEN TREATMENT (STUDY DURATION: 31 WK), Route [Inhibitor]: ORAL, Species: RAT, Strain/Sex: SPRAGUE-DAWLEY/FEMALE, Target Tissue: Type of Lesion: MAMMARY GLAND: ADENOCARCINOMA, Dose [Carcinogen]: 100 MG/KG BW 1/2 D FOR 16 D, Promoter: NONE USED): 23/31 (74%), 20/32 (63%), 15%, not significant
tumour outcome (control, treated, inhibition, significance) (Carcinogen: 4-(METHYLNITROSAMINO)-1-(3-PYRIDYL)-1-BUTANONE [64091-91-4], BENZO[A]PYRENE [50-32-8], Dose [Inhibitor]: 1 UMOL/G IN DIET FOR 10 WK BEGINNING 1 WK PRIOR TO FIRST CARCINOGEN DOSE (STUDY DURATION: 28 WK), Route [Inhibitor]: ORAL, Species: MOUSE, Strain/Sex: A/J/FEMALE, Target Tissue: Type of Lesion: LUNG: TUMOR, Dose [Carcinogen]: 3 UMOL BAP + 3 UMOL NNK IN 0.1 ML COTTONSEED OIL 1X/WK FOR 8 WK (STUDY DURATION: 28 WK), Promoter: NONE): 100%, 100%, 0%, not calculated
tumour outcome (control, treated, inhibition, significance) (Carcinogen: 4-(METHYLNITROSAMINO)-1-(3-PYRIDYL)-1-BUTANONE [64091-91-4], BENZO[A]PYRENE [50-32-8], Dose [Inhibitor]: 6 UMOL IN 0.1 ML COTTONSEED OIL 1/WK FOR 8 WK 2 HR PRIOR TO EACH CARCINOGEN DOSE (STUDY DURATION: 16 WK), Route [Inhibitor]: GAVAGE, Species: MOUSE, Strain/Sex: A/J/FEMALE, Target Tissue: Type of Lesion: LUNG: TUMOR, Dose [Carcinogen]: 3 UMOL BAP + 3 UMOL NNK IN 0.1 ML COTTONSEED OIL 1X/WK FOR 8 WK (STUDY DURATION: 16 WK), Promoter: NONE): 100%, 100%, 0%, not calculated
tumour outcome (control, treated, inhibition, significance) (Carcinogen: 4-(METHYLNITROSAMINO)-1-(3-PYRIDYL)-1-BUTANONE, 64091-91-4, Dose [Inhibitor]: 0, 1 UMOL/G DIET FOR 15 WK BEGINNING 1 WK POST CARCINOGEN DOSE (STUDY DURATION: 16 WK), Route [Inhibitor]: ORAL, Species: MOUSE, Strain/Sex: STRAIN-A/FEMALE, Target Tissue: Type of Lesion: LUNG: ADENOMA, Dose [Carcinogen]: 10 UMOL ONCE, Promoter: NONE USED): 100%, 100%, 0%, not significant
tumour outcome (control, treated, inhibition, significance) (Carcinogen: 4-(METHYLNITROSAMINO)-1-(3-PYRIDYL)-1-BUTANONE, 64091-91-4, Dose [Inhibitor]: 0, 3 UMOL/G DIET FOR 15 WK BEGINNING 1 WK POST CARCINOGEN DOSE (STUDY DURATION: 16 WK), Route [Inhibitor]: ORAL, Species: MOUSE, Strain/Sex: STRAIN-A/FEMALE, Target Tissue: Type of Lesion: LUNG: ADENOMA, Dose [Carcinogen]: 10 UMOL ONCE, Promoter: NONE USED): 100%, 100%, 0%, not significant
tumour outcome (control, treated, inhibition, significance) (Carcinogen: 4-(METHYLNITROSAMINO)-1-(3-PYRIDYL)-1-BUTANONE, 64091-91-4, Dose [Inhibitor]: 0, 5 UMOL 1/D FOR 4 D ADMINISTERED PRIOR TO CARCINOGEN DOSE (STUDY DURATION: 116 D), Route [Inhibitor]: GAVAGE, Species: MOUSE, Strain/Sex: STRAIN-A, Target Tissue: Type of Lesion: LUNG: ADENOMA, Dose [Carcinogen]: 10 UMOL IN SALINE ADMINISTERED 2 HR POST LAST AGENT DOSE, Promoter: NONE USED): 100%, 100%, 0%
tumour outcome (control, treated, inhibition, significance) (Carcinogen: 4-(METHYLNITROSAMINO)-1-(3-PYRIDYL)-1-BUTANONE, 64091-91-4, Dose [Inhibitor]: 0, 5 UMOL/D FOR 4 CONSECUTIVE DAYS (STUDY DURATION: 17 WK), Route [Inhibitor]: GAVAGE, Species: MOUSE, Strain/Sex: STRAIN-A/FEMALE, Target Tissue: Type of Lesion: LUNG: ADENOMA, Dose [Carcinogen]: 10 UMOL ONCE 2 HR POST LAST AGENT DOSE, Promoter: NONE USED): 100%, 100%, 0%, not significant
tumour outcome (control, treated, inhibition, significance) (Carcinogen: 4-(METHYLNITROSAMINO)-1-(3-PYRIDYL)-1-BUTANONE, 64091-91-4, Dose [Inhibitor]: 5 UMOL/D FOR 4 CONSECUTIVE DAYS (STUDY DURATION: 16 WK), Route [Inhibitor]: GAVAGE, Species: MOUSE, Strain/Sex: STRAIN-A/FEMALE, Target Tissue: Type of Lesion: LUNG: ADENOMA, Dose [Carcinogen]: 10 UMOL ONCE 2 HR POST LAST AGENT DOSE, Promoter: NONE USED): 30/30 (100%), 30/30 (100%), 0%
tumour outcome (control, treated, inhibition, significance) (Carcinogen: 4-(N-NITROSOMETHYLAMINO)-1-(3-PYRIDYL)-1-BUTANONE, 64091-91-4, Dose [Inhibitor]: 0, 5 UMOL/D FOR 4 CONSECUTIVE DAYS (STUDY DURATION: 16.5 WK), Route [Inhibitor]: GAVAGE, Species: MOUSE, Strain/Sex: STRAIN-A/FEMALE, Target Tissue: Type of Lesion: LUNG: ADENOMA, Dose [Carcinogen]: 10 UMOL ONCE 2 HR POST LAST AGENT DOSE, Promoter: NONE USED): 100%, 100%, 0%, not significant
tumour outcome (control, treated, inhibition, significance) (Carcinogen: 4-METHYLNITROSAMINO)-1-(3-PYRIDYL)-1-BUTANONE, 64091-91-4, Dose [Inhibitor]: 0, 5 UMOL 1/D FOR 4 D ADMINISTERED PRIOR TO CARCINOGEN TREATMENT (STUDY DURATION: 116 D), Route [Inhibitor]: GAVAGE, Species: MOUSE, Strain/Sex: STRAIN A, Target Tissue: Type of Lesion: LUNG: ADENOMA, Dose [Carcinogen]: 10 UMOL ONCE 2 HR AFTER FINAL DOSE OF INHIBITOR, Promoter: NONE USED): 100%, 100%, 0%, not significant
tumour outcome (control, treated, inhibition, significance) (Carcinogen: 7,12-DIMETHYLBENZ[A]ANTHRACENE, 57-97-6, Dose [Inhibitor]: 0.017 MMOL/G IN DIET BEGINNING 1 WK AFTER CARCINOGEN ADMINISTRATION (STUDY DURATION: 28 WK), Route [Inhibitor]: ORAL, Species: RAT, Strain/Sex: SPRAGUE-DAWLEY/FEMALE, Target Tissue: Type of Lesion: MAMMARY GLAND: TUMOR, Dose [Carcinogen]: 12 MG DMBA IN 1.0 ML OLIVE OIL ONCE, Promoter: NONE USED): 100%, 63%, 37%, p<0.001
tumour outcome (control, treated, inhibition, significance) (Carcinogen: 7,12-DIMETHYLBENZ[A]ANTHRACENE, 57-97-6, Dose [Inhibitor]: 5.0 MG/G DIET AT AGE 9 WK SIMULTANEOUSLY WITH CARCINOGEN, 3/WK FOR 4 WK (STUDY DURATION: 20 WK), Route [Inhibitor]: ORAL, Species: MOUSE, Strain/Sex: ICR/FEMALE, Target Tissue: Type of Lesion: LUNG: ADENOMA, Dose [Carcinogen]: 0.05 MG/G DIET AT AGE 9 WK, 3/WK FOR 4 WK, Promoter: NONE USED): 95%, 93%, 2%, not significant
tumour outcome (control, treated, inhibition, significance) (Carcinogen: 7,12-DIMETHYLBENZ[A]ANTHRACENE, 57-97-6, Dose [Inhibitor]: 5 MG/G DIET AT AGE 9 WK SIMULTANEOUSLY WITH CARCINOGEN, 3/WK FOR 6 WK (STUDY DURATION: 20 WK), Route [Inhibitor]: ORAL, Species: MOUSE, Strain/Sex: ICR/FEMALE, Target Tissue: Type of Lesion: FORESTOMACH: TUMOR, Dose [Carcinogen]: 0.05 MG/G DIET AT AGE 9 WK, 3/WK FOR 4 WK, Promoter: NONE USED): 87%, 5%, 94%, p<0.01
tumour outcome (control, treated, inhibition, significance) (Carcinogen: 7,12-DIMETHYLBENZ[A]ANTHRACENE, 57-97-6, Dose [Inhibitor]: 25 MG ONCE 2 HR BEFORE DMBA TREATMENT (STUDY DURATION: 18 WK), Route [Inhibitor]: INTRAGASTRIC, Species: RAT, Strain/Sex: SPRAGUE-DAWLEY/FEMALE, Target Tissue: Type of Lesion: MAMMARY GLAND: TUMOR, Dose [Carcinogen]: 12 MG IN 1 ML OLIVE OIL AT AGE 7 WK 2 HR AFTER AGENT TREATMENT, Promoter: NONE USED): 77%, 54%, 30%, not significant
tumour outcome (control, treated, inhibition, significance) (Carcinogen: 7,12-DIMETHYLBENZ[A]ANTHRACENE, 57-97-6, Dose [Inhibitor]: 25 MG ONCE 4 HR BEFORE DMBA TREATMENT (STUDY DURATION: 18 WK), Route [Inhibitor]: INTRAGASTRIC, Species: RAT, Strain/Sex: SPRAGUE-DAWLEY/FEMALE, Target Tissue: Type of Lesion: MAMMARY GLAND: TUMOR, Dose [Carcinogen]: 12 MG IN 1 ML OLIVE OIL AT AGE 7 WK 4 HR AFTER AGENT TREATMENT, Promoter: NONE USED): 86%, 50%, 42%, p<0.05
tumour outcome (control, treated, inhibition, significance) (Carcinogen: 7,12-DIMETHYLBENZ[A]ANTHRACENE, 57-97-6, Dose [Inhibitor]: 50 MG ONCE 2 HR BEFORE DMBA TREATMENT (STUDY DURATION: 18 WK), Route [Inhibitor]: INTRAGASTRIC, Species: RAT, Strain/Sex: SPRAGUE-DAWLEY/FEMALE, Target Tissue: Type of Lesion: MAMMARY GLAND: TUMOR, Dose [Carcinogen]: 12 MG IN 1 ML OLIVE OIL AT AGE 7 WK 2 HR AFTER AGENT TREATMENT, Promoter: NONE USED): 77%, 8%, 90%, p<0.001
tumour outcome (control, treated, inhibition, significance) (Carcinogen: 7,12-DIMETHYLBENZ[A]ANTHRACENE, 57-97-6, Dose [Inhibitor]: 50 MG ONCE 4 HR AFTER DMBA TREATMENT (STUDY DURATION: 18 WK), Route [Inhibitor]: INTRAGASTRIC, Species: RAT, Strain/Sex: SPRAGUE-DAWLEY/FEMALE, Target Tissue: Type of Lesion: MAMMARY GLAND: TUMOR, Dose [Carcinogen]: 12 MG IN 1 ML OLIVE OIL AT AGE 7 WK 4 HR BEFORE AGENT TREATMENT, Promoter: NONE USED): 71%, 62%, 13%, not significant
tumour outcome (control, treated, inhibition, significance) (Carcinogen: 7,12-DIMETHYLBENZ[A]ANTHRACENE, 57-97-6, Dose [Inhibitor]: 50 MG ONCE 4 HR BEFORE DMBA TREATMENT (STUDY DURATION: 18 WK), Route [Inhibitor]: INTRAGASTRIC, Species: RAT, Strain/Sex: SPRAGUE-DAWLEY/FEMALE, Target Tissue: Type of Lesion: MAMMARY GLAND: TUMOR, Dose [Carcinogen]: 12 MG IN 1 ML OLIVE OIL AT AGE 7 WK 4 HR AFTER AGENT TREATMENT, Promoter: NONE USED): 100%, 21%, 79%, p<0.001 and 85%, 23%, 73%, p<0.01
